Test results: patent US20120305476A1, “TREATMENT METHOD FOR REDUCING THE PRODUCTION OF AN H2S COMPOUND IN AQUEOUS EFFLUENTS PASSING INTO A PIPE” (CENTRE NATIONAL DE LA RECHERCHE SCIENTIFIQUE (CNRS), priority 2010, published 2012)
Like-named read-outs stand apart in the source and are kept apart here.

How the values were obtained:
[1] = tested on: Desulfovibrio vulgaris Hindelborough (DvH); test: H2S production by stationary-phase DvH culture on lactate/sulfate medium with metabolic inhibitors; type: cell-based; settings: for effect of metabolic inhibitor on DvH culture / H2S production: tested at different concentrations
Method: Experiments were carried out with the SRB bacterium Desulfovibrio vulgaris Hindelborough (DvH) for which the genome has been sequenced and which is the model system for the study of sulfate-reducing bacteria.
The culture medium was a lactate/sulfate medium comprising: sodium sulfate 28 mM, magnesium sulfate 8 mM, lactate 45 mM and oligoelements (iron, Zn, Mn, Cu, Co, Mo, Ni, Se, W, Mg).
Various metabolic inhibitors were tested at different concentrations; examples were the addition of iron, oxygen, or a detergent. […] The study was continued by looking at the effect of adding small defined quantities of nitrite and nitrate on the production of H2S by the SRB.

[2] = tested on: DvH+Shewanella consortium; settings: 5 mM; for production of H2S: FIG. 3 panel B
Description: FIG. 3 represents the effect of adding exogenous bacteria of the Shewanella type on the growth of a strain of sulfate-reducing bacteria, DvH, in the presence of nitrate or nitrite (panel A, %=quantity of biomass expressed as a % of the optical density (OD) at 600 nm [nanometers], such that 100% represents the OD at 600 nm for the biomass of a culture of DvH on a lactate/sulfate medium in the absence of treatment) and on the production of H2S (panel B, mM H2S). The control (growth and production of H2S) used a DvH culture with or without the addition of inhibitor. The effect of adding the Shewanella bacteria on the growth and production of H2S is presented in the presence of nitrate (+nitrite) and in the absence of nitrite (nitrite). The Shewanella bacteria alone had no significant effect on H2S production. In FIG. 3, the various symbols represent the experiments under the following conditions: ? =5 mM of nitrate on a DvH+Shewanella consortium, ? =consortium of DvH+Shewanella bacteria in the presence of 5 mM of nitrite, ? =presence of DvH bacteria alone, ? =presence of DvH bacteria alone+nitrite;
A wide range of non-pathogenic aerobic and anaerobic bacteria known to be decontaminants that are compatible with a toxic environment was tested, including the following Gram− aerobic bacteria: Shewanella oneidensis, Rhodobacter sphaeroides, Rhodobacter denitrificans, R. velkampi, Pseudomonas stutzeri, Pseudomonas zobell and Rhospeudomonas palustri, as well as the following anaerobic Gram+ bacteria: Bacillus mojavensis and Bacillus amiloliquefaciens.
However, it has been discovered that it is possible to overcome this bactericidal effect problem by adding exogenic bacteria.

[3] = tested on: sulfate-reducing bacteria (SRB)
Method: Experiments were carried out on a sewerage system diagrammatically shown in FIG. 6, comprising a cesspool 3 supplied with effluent 1 from a conduit 11, a lifting pump 4 that was used to supply a force main 2 from the cesspool 3 to a holding tank 8 cooperating with a gravity fed transfer conduit 9 to a treatment plant (not shown).
The force main 2 was 1170 m [meter] long with a nominal diameter of 250 mm [millimeter], giving a volume of 57.5 m^3. The delivery of the lifting pump was 150 m^3/hour. A nitrite tank 12 cooperated with a dosing pump 7 to inject nitrite into the effluents entering the force main 2.
Sodium nitrite NaNO2 was tested in 40% by weight solution with a density of 1.3. This reagent was injected directly into the effluent pumping pit almost level with the inlet thereof into the force main via a dedicated dosing pump 7 that could reach a delivery of up to 14 L/h. Start-up of the dosing pump 7 was linked with that of the lifting pump 4 with the two pumps being stopped by a low level of effluents in the cesspool 3.
Various measurements for the concentration of sulfide in water leaving the force main were carried out. The concentration of sulfide in water was determined by means of an assay kit using the reaction of H2S with aniline forming a colorless intermediate that is oxidized by ferric ions to a colored compound: methylene blue, an optical disk comparator with a color gradient, was used to determine the concentration of sulfide in the solution as a function of its color. The temperatures of the effluent and redox potential were measured at the holding tank or settling tank 8 using standard equipment.

[4] = tested on: bacteria from the sludge sample (Shigella/Escherichia coli/Salmonella, Clostridium, Desulfovibrio type)
[5] = tested on: SRB bacteria that produce H2S; settings: treatment with nitrite alone; cited from earlier work
[6] = tested on: Desulfovibrio vulgaris Hindelborough (DvH); settings: SRB pure strain (DvH alone), FIG. 2
Description: FIG. 2 represents the relationship between the quantity of biomass (%) and the production of H2S (mM) for a stationary phase culture of DvH bacteria in the presence of different concentrations of nitrites or nitrates in the culture medium. The quantity of biomass (bacterial survival) is expressed as the % optical density (OD) at 600 nm [nanometer] compared with the OD at 600 nm of the biomass for a DvH culture on a lactate/sulfate medium in the absence of treatment, this culture representing 100%;
In FIG. 2, the quantities of biomass (% growth) and production of H2S (mM) are shown under the following conditions: ? =% growth+nitrite, ? =H2S production+nitrite, ? =% growth+nitrate, ? H2S production+nitrate;
In FIG. 2, bacterial survival was monitored.

[Fe] [iron]
effect of metabolic inhibitor on DvH culture / H2S production [1]: induced a drastic oxidizing stress and caused bacterial death

O=[N+]([O-])O [nitrate]
concentration giving visible and substantial inhibition of H2S production [1]: 15 mM
reduction of the production of H2S [1]: approximately 90%
production of H2S [2]: no significant reduction in H2S production was observed

O=NO [nitrite]
rise in the sulfide concentrations after stopping the nitrite treatment ([3]; after 24 h): no more than 25%
rise in the sulfide concentrations after stopping the nitrite treatment ([3]; after stopping treatment): approximately 10%
biomass (bactericidal effect) ([4]; beyond 5 mM of nitrite): biomass was slightly affected
inhibiting effect on H2S production ([4]; beyond 5 mM of nitrite): inhibiting effect on H2S production reduced
cell death ([4]; even in the absence of Shewanella, concentration 5 mM or less): did not induce cell death
duration of the effect on the bacteria after nitrite is consumed ([4]; nitrite consumed over time): long-lasting effect or remanence effect
concentration from which a drop in the production of H2S is induced ([4]; sludge sample): ≥ 3 mM
effect on hydrogen sulfide production [5]: No effect on hydrogen sulfide production is observed
concentration giving visible and substantial inhibition of H2S production [1]: ≥ 5 mM
reduction of the production of H2S [1]: approximately 90%
biomass ([2]; FIG. 3 panel A): maintaining the biomass
production of H2S [2]: reduction in the production of H2S

O=O [oxygen]
effect of metabolic inhibitor on DvH culture / H2S production [1]: production of H2S restarted as soon as the redox potential of the medium became negative again

O=NO [sodium nitrite]
maximum quantity of dissolved sulfide H2S at the outlet from the force main ([3]; 2.5 g/m^3 to 6 g/m^3 per g/m^3 of sulfide to be reduced, every other day or overnight): ≤ 1.5 mg/L
quantity of dissolved sulfites at the force main outlet ([3]; 4 g to 5 g per gram of dissolved sulfide produced in the absence of treatment): ≤ 1 mg/L
reduction of dissolved sulfide produced by the conduit ([3]; daily treatments with 2.5 g/m^3 to 6 g/m^3 of NaNO2): 1 g/m^3
remanence of inhibiting activity ([3]; on-site, transient and intermittent treatment): remanence effect
bacterial survival [6]: lethal effect on bacteria
